Data reported in PubChem BioAssay (NCI).
“And” between values parts separate entries of the source, which are not always exact repeats. Identical values can stand only once.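 Growth conditions: 96-well plates. Treatment: test compound, 48 hours, 5 concentrations. Analysis: linear interpolation between bracketing concentrations; unreached endpoints set to highest concentration. Here, GI50 denotes the concentration required for 50% inhibition of growth. TGI: concentration producing complete growth inhibition.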

Columns and labels:
Assay in all cases: NCI-60 cell line screen, 48 h
[1] = tested on: A549 NSCLC
[2] = tested on: CCRF-CEM leukemia
[3] = tested on: HCT-15 colon
[4] = tested on: HL-60(TB) leukemia
[5] = tested on: HOP-92 NSCLC
[6] = tested on: K-562 leukemia
[7] = tested on: KM12 colon
[8] = tested on: MCF7 breast
[9] = tested on: NCI/ADR-RES ovarian
[10] = tested on: OVCAR-4 ovarian

| Structure (SMILES) | GI50 [1] [µM] | TGI [1] [µM] | GI50 [2] [µM] | TGI [2] [µM] | GI50 [3] [µM] | TGI [3] [µM] | GI50 [4] | TGI [4] [µM] | GI50 [5] | TGI [5] | GI50 [6] | TGI [6] [µM] | GI50 [7] | TGI [7] [µM] | GI50 [8] [µM] | TGI [8] [µM] | GI50 [9] [µM] | TGI [9] [µM] | GI50 [10] [µM] | TGI [10] [µM] |
| --- | --- | --- | --- | --- | --- | --- | --- | --- | --- | --- | --- | --- | --- | --- | --- | --- | --- | --- | --- | --- |
| CC1(C)CC([P+](c2ccccc2)(c2ccccc2)c2ccccc2)=NN1 | 5.1 | > 100 | 8.36 | > 100 | > 100 | > 100 | 1.91 µM | 9.19 | 3.75 µM | 71.9 µM | 3.55 µM | > 100 | 1.89 µM | 45.9 | 2.46 | > 100 | > 100 | > 100 | 3.07 | > 100 |
| Cc1ncc(C(=O)Nc2ccc(CN3CCN(C)CC3)c(C(F)(F)F)c2)cc1C#Cc1c(N)ncc2ccccc12 | 0.488 | 1.03 | 0.494 | 1.35 | 0.382 | 0.873 | 0.247 µM | 0.817 | 0.0535 µM | 0.505 µM | 0.00332 µM | 0.453 | 0.00444 µM | 0.479 | 0.378 | 0.913 | 0.67 | 1.54 | 0.515 | 2.08 |
| CCOc1nccc2c1nc(-c1nonc1N)n2CC | > 25 | > 25 | > 25 | > 25 | > 25 | > 25 | > 25 µM | > 25 | 1.17 µM | > 25 µM | > 25 µM | > 25 | > 25 µM | > 25 | > 25 | > 25 | > 25 | > 25 | > 25 | > 25 |
| Cn1cnc2c(F)c(Nc3ccc(Br)cc3F)c(C(=O)NOCCO)cc21 | 5.87 | > 100 | > 100 | > 100 | 57.5 | > 100 | 0.0193 µM and 0.0192 µM | > 100 | 0.0606 µM and 0.11 µM | 1.9 µM and 2.01 µM | 1.33 µM and 10.8 µM | > 100 | 0.264 µM and 0.445 µM | > 100 | > 100 | > 100 | > 100 | > 100 | 8.06 | > 100 |
| C=C1C(OC/C=C/COC2O[C@@H]3O[C@@]4(C)CC[C@H]5[C@H](C)CC[C@@H](C2=C)[C@@]35OO4)O[C@@H]2O[C@@]3(C)CC[C@H]4[C@H](C)CC[C@@H]1[C@@]24OO3 (some centres undefined) | 7.48 | > 60.5 | 0.0325 | > 40 | < 0.0194 | 16 |  | 47.1 | 1.14 µM | 36.3 µM | 0.0949 µM | > 67.3 | < 0.024 µM | 0.778 | 0.0801 | 16.2 | 0.203 | 18.1 | 0.741 | 26.2 |
| COc1cc(F)c(/C=C/c2cc(/C=C/c3cc(OC)c(OC)cc3F)n(-c3cc(F)cc(F)c3)n2)cc1OC | 3.29 | 11.4 | 37.5 | > 100 | 2.84 | 9.05 | > 100 µM | > 100 | 6 µM | 21.5 µM | 3.08 µM | > 100 | 3.3 µM | 12.8 | 2.99 | 17.3 | 2.23 | 5.65 | 1.97 | 5.75 |
